Measured values reported in article PMC5473928 (Scientific Reports, 2017).
Where two headings read alike, the source gives them in different places. Blank lines part the entries; values can stand above or below the compound they belong to.

Assays:
KRasWT = target: T1, KRasWT (Homo sapiens, UniProt P01116); assay: Stopped-flow competition binding of nucleotides to nucleotide-free KRas (mantdGDP or mantdGDPβMe fluorescence, global fit); conditions: for koff: read-out: dissociation rate constant (koff)
T1 construct: His6 (cleaved yes); made in house
Method: A method which leads to estimates of the kinetic parameters as well as the affinity involves stopped-flow measurements of association of fluorescent nucleotides with nucleotide-free Ras followed by competiton between fluorescent and non-fluorescent nucleotides to obtain the parameters for the non-labelled substances.
(§1) All stopped-flow experiments were performed in a SX-20 stopped-flow apparatus (Applied Photophysics) at 25 °C in a buffer consisting of 20 mM Hepes pH 7.5, 100 mM NaCl, 1 mM TCEP, 2 mM MgCl2 (excitation with 360 nm LED, emission detection with a 420 nm cut-off filter).

KRas / SOS564–1049 = target: T2, KRas / SOS564–1049 (Homo sapiens, UniProt P01116); assay: SOS catalyzed nucleotide exchange on KRas:nucleotide complexes, stopped-flow, excess SOS (Fig. 3A); format: biochemical; conditions: not reached in SOS range used; from numerical simulations
T2 construct: His6 (cleaved yes); made in house
Method: as §1

HRas = test system: HRas; parameters: method as in PMID 2200519; conditions: cited from earlier work; for dissociation rate constant (koff): value reported for HRas; for Kd: weakly bound competitor of mantdGDP
HRasF28L = test system: HRasF28L; parameters: method as in PMID 1894650; conditions: HRasF28L mutant; cited from earlier work
KRas = test system: KRas; parameters: method as in PMID 8419371; conditions: Mg^2+ reduced from a physiologically realistic value to 0.1 µM; cited from earlier work
KRasG12C [1] = target: T3, KRasG12C (Homo sapiens, UniProt P01116, C118S/C51S/C80L/G12C); assay: Stopped-flow competition binding and covalent reaction with nucleotide-free KRasG12C (mantdGDPβMe fluorescence, global fit); conditions: 25 °C
T3 construct: KRas1–169 G12C C51S C80L C118S were cloned into a modified pET19 expression vector; His6 (cleaved yes); made in house
Method: as §1

KRasG12C [2] = target: T3, KRasG12C; assay: ESI-MS monitoring of the covalent reaction with KRasG12C; format: biochemical
Method: An independent confirmation of the rapid covalent reaction of SML-8-73-1 with KRasG12C was obtained by mixing the compound with the nucleotide-free protein followed by ESI-MS.
In order to test the predictions arising from the simulations in the case of SML-8-73-1, we have performed a number of semi-quantitative experiments using mass spectrometric analysis.
To allow comparison with published work, further experiments were performed at 37°. In the first experiment, the conditions described by Hunter et al.[21] were duplicated (15 µM KRasG12C, 150 µM SML-8-73-1, no added Mg^2+ ions).
In this case, there was very rapid generation of the covalent adduct, so that the first time of measurement (designated as time zero in the figure, but in practice after ca. 10 min), the reaction was practically complete (Fig. S3F).
The covalent reaction of SML-8-73-1 with KRasG12C was monitored by mass spectrometry. 200 µM SML-8-73-1 was added to the nucleotide-free protein (50 µM), 5 mM dithioerythritol (DTE) was added after ~20 s and the extent of modification monitored by ESI-MS.
For the measurements described in Fig. S3, KRasG12C and SML 8-73-1 were incubated in 20 mM HEPES pH 7.5 and 50 mM NaCl. The conditions are as mentioned in the figure. For each time point, the reaction was stopped by the addition of DTT (to 5 mM final concentration) and acetonitrile (to 25%).

KRasG12C [3] = target: T3, KRasG12C; conditions: cited from earlier work
[4] = KRasWT, 25 °C, global fit of stopped-flow competition
[5] = KRasWT, 25 °C, global fit of stopped-flow competition, read-out: association rate constant (kon)
[6] = read-out: association rate constant (kon)

association rate constant (kon) (KRasWT; [4]): 4.9e+06 M⁻¹ s⁻¹
dissociation rate constant (koff) (KRasWT; [4]): 0.4 s⁻¹
maximal (limiting) rate constant for nucleotide release by SOS (KRas / SOS564–1049): > 5 s⁻¹
SMILES: CNc1ccccc1C(=O)O[C@H]1C[C@H](n2cnc3c(=O)[nH]c(N)nc32)O[C@@H]1COP(=O)(O)OP(=O)(O)OC [mantdGDPβMe]

kon (KRasWT; [5]): 8.2e+06 M⁻¹ s⁻¹
Kd (KRasWT; read-out: Kd): 0.02 nM
kon (KRasWT; read-out: association rate constant (binding scheme, Fig. 1A)): 8.7e+06 ± 40000 M⁻¹ s⁻¹
SMILES: Nc1nc2c(ncn2C2OC(COP(=O)(O)OP(=O)(O)O)C(O)C2O)c(=O)[nH]1 (stereo not drawn) [GDP]
dissociation rate constant (koff) (HRas): ca. 10^−4 s^−1
factor of increase of the rate constant for GDP dissociation (HRasF28L): ca. 140
factor of acceleration of GDP release (KRas): more than 200

kon (KRasWT; [5]): 1.29e+07 M⁻¹ s⁻¹
koff (KRasWT; [4]): 0.1 s⁻¹
Kd (KRasWT; read-out: Kd): 8.5 nM
SMILES: Nc1nc2c(ncn2COCCOP(=O)(O)OP(=O)(O)OP(=O)(O)O)c(=O)[nH]1 [acyclovir triphosphate]

kon (KRasWT; [5]): 7.4e+06 M⁻¹ s⁻¹
koff (KRasWT; [4]): 1 s⁻¹
kon (KRasG12C [1]; [6]): 4.1e+06 M⁻¹ s⁻¹
koff (KRasG12C [1]; read-out: dissociation rate constant (koff)): 0.9 s⁻¹
kinact (KRasG12C [1]; read-out: rate constant for the covalent reaction (kinact)): 0.1 s⁻¹
period over which covalent modification occurred (KRasG12C [2]; 200 µM SML-8-73-1, 50 µM nucleotide-free KRasG12C, DTE quench): tens of seconds to minutes
extent of covalent reaction after 52 h (KRasG12C [2]; 25°, simulation conditions (20 µM inhibitor, 400 µM GTP, 40 µM GDP) but 10 µM KRas, Fig. S3A): almost no reaction
time to 50% reaction (KRasG12C [2]; 37°, 15 µM KRasG12C, 150 µM SML-8-73-1, no added Mg^2+ (ca. 20 µM free), Fig. S3B): 1 to 2 h
extent of covalent reaction after 51 h (KRasG12C [2]; 37°, 1.5 mM each of GTP and GTP and 3 mM Mg^2+, Fig. S3E): a few percent
SMILES: Nc1nc2c(ncn2[C@@H]2O[C@H](COP(=O)(O)OP(=O)(O)OCCNC(=O)CCl)[C@@H](O)[C@H]2O)c(=O)[nH]1 [SML-8-73-1]
rate constant for the covalent reaction (KRasG12C [3]): 0.014 s⁻¹
Kd (KRasG12C [3]; read-out: Kd for the reversible binding step): 9 nM

association rate constant (kon) (KRasWT; [4]): 3.2e+06 M⁻¹ s⁻¹
SMILES: CNc1ccccc1C(=O)O[C@H]1C[C@H](n2cnc3c(=O)[nH]c(N)nc32)O[C@@H]1COP(=O)(O)OP(=O)(O)O [mantdGDP]
dissociation rate constant (koff) (HRas): ca. 10^−4 s^−1

SMILES: Nc1nc2c(ncn2[C@@H]2O[C@H](COP(=O)(O)O)[C@@H](O)[C@H]2O)c(=O)[nH]1 [GMP]
Kd (HRas): 29000 nM

SMILES: Nc1nc2c(ncn2[C@@H]2O[C@H](CO)[C@@H](O)[C@H]2O)c(=O)[nH]1 [guanosine]
Kd (HRas): 153000 nM

SMILES: COP(=O)(O)OP(=O)(O)OCC1OC(n2cnc3c(=O)[nH]c(N)nc32)C(O)C1O (stereo not drawn) [GDPβMe, β-methyl ester of GDP]
Kd (KRasWT): 130 nM
inhibition of mantdGDP binding at equilibrium (KRasWT; 3x excess of GDPβMe over mantdGDP): no significant inhibition
affinity of KRas relative to GDP (KRasWT; from similar kon and faster koff): ca. 4 orders of magnitude lower
release rate relative to GDP (KRasWT; koff of GDPβMe vs koff of GDP): approximately 10^4 times faster
kon (KRasWT; [6]): 5.8e+06 M⁻¹ s⁻¹
koff (KRasWT): 0.8 s⁻¹
